In US20220370465A1, “TREATMENT OF MAST CELL DISEASES AND EOSINOPHILIC DISORDERS” (Blueprint Medicines Corporation, priority 2019, published 2022):

How the values were obtained:
[1] = tested on: tyrosine kinase inhibitor (TKI)-resistant mastocytoma model; experiment: TKI-resistant mastocytoma model in vivo
[2] = tested on: mast cells; experiment: Mast cell activation, proliferation and survival; format: cell-based
Excerpt: In a specific embodiment, the D816 mutation is D816V. In another specific embodiment, the D816 mutation is D816Y. […] In some embodiments, the inhibition is in a dose-dependent manner. […] Current treatment paradigms for mast cell diseases focus on inhibiting individual mast cell mediators for symptom control (anti-histamines, anti-IgE antibodies, etc.), or on using KIT exon 17 inhibitors in KIT mutant mMCAS.

## Cn1cc(-c2cc3c(N4CCN(c5ncc([C@@](C)(N)c6ccc(F)cc6)cn5)CC4)ncnn3c2)cn1 [Compound (I), (5)-1-(4-fluorophenyl)-1-(2-(4-(6-(1-methyl-1H-pyrazol-4-yl)pyrrolo[2,1-f][1,2,4]triazin-4-yl)piperazin-yl)pyrimidin-5-yl)ethan-1-amine]
[1]
  growth inhibition in mastocytoma model: robust growth inhibition
[2]
  mast cell activation: inhibits mast cell activation
  mast cell proliferation: inhibits mast cell proliferation
  survival of mast cells: does not interfere with the survival of mast cells
